ChEMBL document CHEMBL5370565, “Inhibition of Cysteine Proteases via Thiol-Michael Addition Explains the Anti-SARS-CoV-2 and Bioactive Properties of Arteannuin B” (J Nat Prod, 2023)

Tested on: SARS-CoV-2
Experiment: Antiviral activity against SARS-CoV-2 nCoV-2019BetaCoV/Wuhan/WIV04/2019 infected in African green monkey Vero E6 cells assessed as reduction in viral yield preincubated with cells for 1 hrs followed by viral infection for 1 hrs with subsequent replacement of fresh media containing compound and measured 24 hrs post infection by qRT-PCR analysis
Type: functional, organism-based
Conditions: Severe acute respiratory syndrome coronavirus 2, nCoV-2019BetaCoV/Wuhan/WIV04/2019, Vero C1008

`C=C1C(=O)O[C@@]23C1CC[C@@H](C)[C@@H]2CC[C@@]1(C)O[C@@H]31` (stereo partly specified) showed an EC50 of 10.3 µM.
